In patent publication US11065253B2, “Arylquinazolines” (Merck Patent GmbH, priority 2013, dated 2021):
Where two headings read alike, the source gives them in different places.

Tested on: phospho-serine 2056 DNA-PK in HCT116 cells
Assay: DNA-PK phosphorylation at serine 2056 (cellular), ELISA in bleomycin-treated HCT116 cells
Assay type: cell-based
Settings: read-out: IC50 pDNA-PK
Procedure, shortened: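 Chemiluminescent ELISA quantified DNA-PK Ser2056 phosphorylation relative to total DNA-PKcs in HCT116 cells. Cells received compounds together with 10 μM bleomycin for 6 h; DMSO served as blank.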

[1] = cellular DNA-PK phosphorylation at serine 2056, HCT116 cells
[2] = Homo sapiens, HCT-116, cellular DNA-PK phosphorylation at serine 2056, HCT116 cells
[3] = Homo sapiens, HCT-116, phospho-serine 2056 DNA-PK, bleomycin-treated HCT116 cells
[4] = Homo sapiens, HCT-116, 6 h, cellular, HCT116 cells, 10 μM bleomycin, six hours
[5] = Homo sapiens, HCT-116, phospho-serine 2056 DNA-PK, bleomycin-treated HCT116 cells, class symbols A-D

## OC(c1cccnn1)c1cc(-c2ncnc3cc(N4CCOCC4)ccc23)ccc1Cl (centres unmarked) [Example 470, [2-Chloro-5-(7-morpholin-4-yl-quinazolin-4-yl)-phenyl]pyridazin-3-yl-methanol]
[1]
  IC50: < 0.5 µM

## OC(c1cc(-c2ncnc3cc(N4CCOCC4)ccc23)c(F)cc1Cl)c1ncnc2sccc12 (centres unmarked) [Example 429, [2-Chloro-4-fluoro-5-(7-morpholin-4-yl-quinazolin-4-yl)-phenyl]thieno[2,3-d}-pyrimidin-4-yl-methanol]
[2]
  IC50: < 0.5 µM

## Cc1nccnc1C(O)c1cc(-c2ncnc3cc(N4CCOCC4)cnc23)c(F)cc1Cl (centres unmarked) [Example 240, [2-Chloro-4-fluoro-5-(7-morpholin-4-yl-pyrido[3,2-d}-pyrimidin-4-yl)-phenyl]-(3-methyl-pyrazin-2-yl)-methanol]
[3]
  IC50: 0.5 to 5 µM

## OC(c1ccc(F)c(-c2ncnc3cc(N4CCOCC4)ccc23)c1)c1ncccc1Cl (centres unmarked) [Example 42, (3-Chloro-pyridin-2-yl)-[4-fluoro-3-(7-morpholin-4-yl-quinazolin-4-yl)phenyl]-methanol]
[4]
  IC50: < 0.5 µM

## NC(=O)C(c1ccc(F)c(-c2ncnc3cc(N4CCOCC4)ccc23)c1)c1ncnn2cccc12 (centres unmarked) [Example 299, 2-[4-Fluoro-3-(7-morpholin-4-yl-quinazolin-4-yl)-phenyl]-2-pyrrolo-[2,1-f][1,2,4]triazin-4-ylacetamide]
[3]
  IC50: 10 to 30 µM

## OC(c1ccc(F)c(-c2ncnc3cc(N4CCOCC4)ccc23)c1)c1ncccc1OC(F)(F)F (centres unmarked) [Example 475, [4-Fluoro-3-(7-morpholin-4-yl-quinazolin-4-yl)-phenyl]-(3-trifluoro-methoxypyridin-2-yl)-methanol]
[2]
  IC50: < 0.5 µM

## O=c1ccc(C(O)c2ccc(F)c(-c3ncnc4cc(N5CCOCC5)ccc34)c2)n[nH]1 (centres unmarked) [Example 367, 6-{[4-Fluoro-3-(7-morpholin-4-yl-quinazolin-4-yl)phenyl]-hydroxymethyl}-2H-pyridazin-3-one]
[2]
  IC50: 0.5 to 5 µM

## CCn1c(C(O)c2ccc(F)c(-c3ncnc4cc(N5CCOCC5)ccc34)c2)cccc1=O (centres unmarked) [Example 398, 1-Ethyl-6-{[4-fluoro-3-(7-morpholin-4-yl-quinazolin-4-yl)-phenyl]hydroxy-methyl}-1H-pyridin-2-one]
[2]
  IC50: 0.5 to 5 µM

## Cc1nccnc1C(O)c1cc(-c2ncnc3cc(N4CCOCC4)ccc23)ccc1F (centres unmarked) [Example 393, [2-Fluoro-5-(7-morpholin-4-yl-quinazolin-4-yl)-phenyl]-(3-methyl-pyrazin-2-yl)-methanol]
[2]
  IC50: 5 to 10 µM

## N#CCCOc1ccc(C(O)c2cc(-c3ncnc4cc(N5CCOCC5)ccc34)c(F)cc2Cl)nn1 (centres unmarked) [Example 107, 3-(6-{[2-Chloro-4-fluoro-5-(7-morpholin-4-yl-quinazolin-4-yl)-phenyl]hydroxy-methyl}pyridazin-3-yl-oxy)propionitrile]
[5]
  IC50: 0.5 to 5 µM

## OC(c1ccc2ncnn2c1)c1cc(-c2ncnc3cc(N4CCOCC4)ccc23)c(F)cc1F (centres unmarked) [Example 222, [2,4-Difluoro-5-(7-morpholin-4-yl-quinazolin-4-yl)-phenyl]-[1,2,4]-triazolo[1,5-a]pyridin-6-ylmethanol]
[5]
  IC50: 0.5 to 5 µM

## OC(c1ccnnc1)c1cc(-c2ncnc3cc(N4CCOCC4)ccc23)c(F)cc1Cl (centres unmarked) [Example 36, [2-Chloro-4-fluoro-5-(7-morpholin-4-yl-quinazolin-4-yl)phenyl]-pyridazin-4-ylmethanol]
[4]
  IC50: < 0.5 µM

## OC(c1cc(-c2ncnc3cc(N4CCOCC4)ccc23)c(F)cc1F)c1nccnc1OC(F)F (centres unmarked) [Example 450, (3-Difluoromethoxy-pyrazin-2-yl)-[2,4-difluoro-5-(7-morpholin-4-yl-quinazolin-4-yl)-phenyl]methanol]
[1]
  IC50: 5 to 10 µM

## OC(c1ccc2nccn2n1)c1cc(-c2ncnc3cc(N4CCOCC4)ccc23)c(F)cc1F (centres unmarked) [Example 51, [2,4-Difluoro-5-(7-morpholin-4-yl-quinazolin-4-yl)phenyl]-imidazo[1,2-b]pyridazin-6-ylmethanol]
cellular, HCT116 cells, 10 μM bleomycin, six hours
  IC50: < 0.5 µM

## Cn1nc(C(C(N)=O)c2ccc(F)c(-c3ncnc4cc(N5CCOCC5)ccc34)c2)ccc1=O (centres unmarked) [Example 317, 2-[4-Fluoro-3-(7-morpholin-4-yl-quinazolin-4-yl)-phenyl]-2-(1-methyl-6-oxo-1,6-dihydro-pyridazin-3-yl)-acetamide]
[3]
  IC50: 10 to 30 µM

## OC(c1ccc(F)c(-c2ncnc3cc(N4CCOCC4)ccc23)c1)c1cncc(F)c1Cl (centres unmarked) [Example 2, (4-Chloro-5-fluoropyridin-3-yl)-[4-fluoro-3-(7-morpholin-4-ylquinazolin-4-yl)phenyl]methanol]
[4]
  IC50: < 0.5 µM

## CC(C)n1cc(C(O)c2ccc(F)c(-c3ncnc4cc(N5CCOCC5)ccc34)c2)cn1 (centres unmarked) [Example 197, [4-Fluoro-3-(7-morpholin-4-yl-quinazolin-4-yl)-phenyl]-(1-isopropyl-1 H-pyrazol-4-yl)-methanol]
[5]
  IC50: 5 to 10 µM

## Cc1cccnc1C(O)c1ccc(F)c(-c2ncnc3cc(N4CCOCC4)ccc23)c1 (centres unmarked) [Example 472, [4-Fluoro-3-(7-morpholin-4-yl-quinazolin-4-yl)-phenyl]-(3-methyl-pyridin-2-yl)methanol]
[1]
  IC50: < 0.5 µM

## Cc1nccnc1C(C(N)=O)c1cc(-c2ncnc3cc(N4CCOCC4)ccc23)ccc1Cl (centres unmarked) [Example 303, 2-[2-Chloro-5-(7-morpholin-4-yl-quinazolin-4-yl)-phenyl]-2-(3-methyl-pyrazin-2-yl)-acetamide]
[3]
  IC50: 5 to 10 µM

## NC(=O)C(c1ccc(F)c(-c2ncnc3cc(N4CCOCC4)ccc23)c1)c1ncccc1Cl (centres unmarked) [Example 313, 2-(3-Chloro-pyridin-2-yl)-2-[4-fluoro-3-(7-morpholin-4-yl-quinazolin-4-yl)-phenyl]acetamide]
[3]
  IC50: 5 to 10 µM

## O=C(O)COc1ccc(C(O)c2cc(-c3ncnc4cc(N5CCOCC5)ccc34)c(F)cc2Cl)nn1 (centres unmarked) [Example 113, (6-{[2-Chloro-4-fluoro-5-(7-morpholin-4-yl-quinazolin-4-yl)-phenyl]hydroxy-methyl}pyridazin-3-yl-oxy)acetic acid]
[5]
  IC50: 10 to 30 µM

## OC(c1ccc(F)c(-c2ncnc3cc(N4CCOCC4)ccc23)c1)c1cccnn1 (centres unmarked) [Example 65, [4-Fluoro-3-(7-morpholin-4-yl-quinazolin-4-yl)phenyl]-pyridazin-3-ylmethanol]
[4]
  IC50: 0.5 to 5 µM

## Cc1cnc(C(O)c2cc(-c3ncnc4cc(N5CCOCC5)ccc34)c(F)cc2F)c(C)n1 (centres unmarked) [Example 355, [2,4-Difluoro-5-(7-morpholin-4-yl-quinazolin-4-yl)-phenyl]-(3,5-dimethyl-pyrazin-2-yl)methanol]
[3]
  IC50: 0.5 to 5 µM

## COc1ccc(C(O)c2cc(-c3ncnc4cc(N5CCOCC5)ccc34)c(F)cc2Cl)nn1 (centres unmarked) [Example 137, [2-Chloro-4-fluoro-5-(7-morpholin-4-ylquinazolin-4-yl)-phenyl]-(6-methoxy-pyridazin-3-yl)-methanol]
[5]
  IC50: 0.5 to 5 µM

## COc1nccnc1C(O)c1cc(-c2ncnc3cc(N4CCOCC4)ccc23)ccc1F (centres unmarked) [Example 394, [2-Fluoro-5-(7-morpholin-4-yl-quinazolin-4-yl)-phenyl]-(3-methoxy-pyrazin-2-yl)-methanol]
[2]
  IC50: 0.5 to 5 µM

## CC(C#N)Oc1ccc(C(O)c2cc(-c3ncnc4cc(N5CCOCC5)ccc34)c(F)cc2Cl)nn1 (centres unmarked) [Example 101, 2-(6-{[2-Chloro-4-fluoro-5-(7-morpholin-4-yl-quinazolin-4-yl)-phenyl]hydroxy-methyl}pyridazin-3-yloxy)propionitrile]
phospho-serine 2056 DNA-PK, bleomycin-treated HCT116 cells, class symbols A-D
  IC50: < 0.5 µM
